Measurements reported in patent US4755513A, “Antimicrobial 1-substituted phenyl-4-oxoquinoline-3-carboxylic acid compounds” (Otsuka Pharmaceutical Company, Limited, priority 1985, dated 1988).

Legend:
Experiment in all cases: MIC by serial dilution method on agar plate
Type in all cases: cell-based
[1] = tested on: Staphylococcus aureus FDA 209P
From the text: (§1) The microorganisms were used in a concentration of 1×10^8 cells/ml (O.D. 660 mμ, 0.07-0.16) and 1×10^6 cells/ml (100 folds dilution).

[2] = tested on: Staphylococcus pyrogens IID S-23
From the text: as §1

[3] = tested on: Acinetobacter calcoaceticus AC-54
From the text: (§2) Chemotherapy, 22, 1126-1128 (1974)]. The microorganisms were used in a concentration of 1×10^8 cells/ml (O.D. 660 mμ, 0.07-0.16) and 1×10^6 cells/ml (100 folds dilution).

[4] = tested on: Bacillus subtilis ATCC 6633
From the text: as §2

[5] = tested on: Escherichia coli NIHJ JC-2
From the text: as §2

Escherichia coli No. 29 = tested on: Escherichia coli No. 29
From the text: as §2

[6] = tested on: Klebsiella pneumoniae NCTC 9632
From the text: as §2

[7] = tested on: Proteus inconstans IFO 12930
From the text: as §2

[8] = tested on: Proteus morganii IID Kono
From the text: as §2

[9] = tested on: Pseudomonas aeruginosa ATCC 10145
From the text: as §2

[10] = tested on: Pseudomonas aeruginosa E-2
From the text: as §2

[11] = tested on: Serratia marcescens IFO 12648
From the text: as §2

[12] = tested on: Streptococcus faecalis IFO 12580
From the text: as §2

Molecule | minimum inhibitory concentration (MIC) ([1]; 1 × 10^6 cells/ml) | minimum inhibitory concentration (MIC) ([1]; 1 × 10^8 cells/ml) | minimum inhibitory concentration (MIC) ([2]; 1 × 10^8 cells/ml) | minimum inhibitory concentration (MIC) ([3]; 1 × 10^6 cells/ml) | minimum inhibitory concentration (MIC) ([3]; 1 × 10^8 cells/ml) | minimum inhibitory concentration (MIC) ([4]; 1 × 10^6 cells/ml) | minimum inhibitory concentration (MIC) ([4]; 1 × 10^8 cells/ml) | minimum inhibitory concentration (MIC) ([5]; 1 × 10^6 cells/ml) | minimum inhibitory concentration (MIC) ([5]; 1 × 10^8 cells/ml) | minimum inhibitory concentration (MIC) (Escherichia coli No. 29; 1 × 10^6 cells/ml) | minimum inhibitory concentration (MIC) (Escherichia coli No. 29; 1 × 10^8 cells/ml) | minimum inhibitory concentration (MIC) ([6]; 1 × 10^6 cells/ml) | minimum inhibitory concentration (MIC) ([6]; 1 × 10^8 cells/ml) | minimum inhibitory concentration (MIC) ([7]; 1 × 10^6 cells/ml) | minimum inhibitory concentration (MIC) ([7]; 1 × 10^8 cells/ml) | minimum inhibitory concentration (MIC) ([8]; 1 × 10^6 cells/ml) | minimum inhibitory concentration (MIC) ([8]; 1 × 10^8 cells/ml) | minimum inhibitory concentration (MIC) ([9]; 1 × 10^6 cells/ml) | minimum inhibitory concentration (MIC) ([9]; 1 × 10^8 cells/ml) | minimum inhibitory concentration (MIC) ([10]; 1 × 10^6 cells/ml) | other results
6,8-Difluoro-1-(4-fluorophenyl)-7-(1-piperazinyl)-1,4-dihydro-4-oxoquinoline-3-carboxylic acid [Test Compd. No. 2] | 0.195 | 0.195 | 6.25 | 0.781 | 1.56 | 0.097 | 0.195 | < 0.048 | < 0.048 | < 0.048 | < 0.048 | 0.097 | 0.195 | 1.56 | 3.12 | 0.781 | 1.56 | 1.56 | 1.56 | 1.56 | minimum inhibitory concentration (MIC) ([10]; 1 × 10^8 cells/ml): 1.56; minimum inhibitory concentration (MIC) ([11]; 1 × 10^6 cells/ml): 0.39; minimum inhibitory concentration (MIC) ([11]; 1 × 10^8 cells/ml): 0.781; minimum inhibitory concentration (MIC) ([12]; 1 × 10^6 cells/ml): 0.781; minimum inhibitory concentration (MIC) ([12]; 1 × 10^8 cells/ml): 1.56
O=C(O)c1cn(-c2ccc(F)cc2)c2cc(N3CCNCC3)c(F)cc2c1=O [B] | 0.195 | 0.39 | 6.25 | 0.195 | 0.39 | 0.097 | 0.195 | < 0.048 | 0.097 | < 0.048 | 0.097 | < 0.048 | 0.097 | 0.78 | 0.78 | 0.195 | 0.195 | 0.78 | 1.56 | 0.78 | minimum inhibitory concentration (MIC) ([2]; 1 × 10^6 cells/ml): 3.12; minimum inhibitory concentration (MIC) ([10]; 1 × 10^8 cells/ml): 0.78; minimum inhibitory concentration (MIC) ([11]; 1 × 10^6 cells/ml): 0.195; minimum inhibitory concentration (MIC) ([11]; 1 × 10^8 cells/ml): 0.39
